Measured values as given in US20230085307A1, “PYRIDAZINONE COMPOUND AND HERBICIDE” (NISSAN CHEMICAL CORPORATION, priority 2019, published 2023).

Columns and labels:
windgrass [1] = test: Test Example 5: herbicidal effect by foliage application, plastic box (Table 20, symbol L); format: in vivo, windgrass (Apera spica-venti); settings: foliage application, 270 g/ha, 3 weeks after application
How it was run: (§1)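 Plants sown in sterilized diluvial soil and grown 14 days in a greenhouse at 25° C to 30° C, then sprayed on the foliage with the compound's emulsion diluted in water to a predetermined herbicide amount. Injury to weeds and crops scored three weeks after application on a visual rating scale.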

blackgrass [2] = test: Test Example 5: herbicidal effect by foliage application, plastic box (Table 20, symbol J); format: in vivo, blackgrass (Alopecurus myosuroides); settings: foliage application, 270 g/ha, 3 weeks after application
How it was run: as §1

southern crabgrass [3] = test: Test Example 5: herbicidal effect by foliage application, plastic box (Table 20, symbol F); format: in vivo, southern crabgrass (Digitaria ciliaris); settings: foliage application, 270 g/ha, 3 weeks after application
How it was run: as §1

false cleavers = test: Test Example 5: herbicidal effect by foliage application, plastic box (Table 20, symbol Q); format: in vivo, false cleavers (Galium spurium); settings: foliage application, 270 g/ha, 3 weeks after application
From the text: [Test Example 5] Herbicidal Effect Test by Foliage Application
Sterilized diluvial soil was placed in a plastic box having a length of 21 cm, a width of 13 cm, and a depth of 7 cm. The seeds of each of southern crabgrass, green foxtail, barnyard grass, wild oat, blackgrass, Italian ryegrass, windgrass, velvetleaf, redroot pigweed, lambsquarters, chickweed, false cleavers, persian speedwell, corn, soybean, rice, wheat, beet, and rapeseed were sowed in a spot-like manner and covered with the soil having a thickness of about 1.5 cm. Thereafter, the plants were grown in a greenhouse at 25° C. to 30° C. After 14-day growth of the plants, the emulsion agent of the compound of the present invention prepared according to Formulation Example 2 was diluted with water so as to achieve a predetermined herbicide amount, and the diluted emulsion agent was uniformly applied to a foliage part with a small-sized spray. Three weeks after the herbicide application, the effect of the herbicide on each plant was evaluated according to the criteria of Test Example 1.

green foxtail [4] = test: Test Example 5: herbicidal effect by foliage application, plastic box (Table 20, symbol G); format: in vivo, green foxtail (Setaria viridis); settings: foliage application, 270 g/ha, 3 weeks after application
How it was run: as §1

velvetleaf [5] = test: Test Example 5: herbicidal effect by foliage application, plastic box (Table 20, symbol M); format: in vivo, velvetleaf (Abutilon theophrasti); settings: foliage application, 270 g/ha, 3 weeks after application
How it was run: as §1

wild oat [6] = test: Test Example 5: herbicidal effect by foliage application, plastic box (Table 20, symbol I); format: in vivo, wild oat (Avena fatua); settings: foliage application, 270 g/ha, 3 weeks after application
How it was run: as §1

Italian ryegrass [7] = test: Test Example 5: herbicidal effect by foliage application, plastic box (Table 20, symbol K); format: in vivo, Italian ryegrass (Lolium multiflorum); settings: foliage application, 270 g/ha, 3 weeks after application
How it was run: as §1

barnyard grass [8] = test: Test Example 5: herbicidal effect by foliage application, plastic box (Table 20, symbol H); format: in vivo, barnyard grass (Echinochloa crus-galli); settings: foliage application, 270 g/ha, 3 weeks after application
How it was run: as §1

lambsquarters [9] = test: Test Example 5: herbicidal effect by foliage application, plastic box (Table 20, symbol O); format: in vivo, lambsquarters (Chenopodium album); settings: foliage application, 270 g/ha, 3 weeks after application
How it was run: as §1

persian speedwell [10] = test: Test Example 5: herbicidal effect by foliage application, plastic box (Table 20, symbol R); format: in vivo, Persian speedwell (Veronica persica); settings: foliage application, 270 g/ha, 3 weeks after application
How it was run: as §1

barnyard grass [11] = test: Test Example 4: herbicidal effect by soil treatment (Table 19, symbol H); format: in vivo, barnyard grass (Echinochloa crus-galli); settings: amount of applied herbicide 320 g/ha
How it was run: (§2)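 Three weeks of greenhouse growth at 25° C. to 30° C. followed a uniform surface spray of water-diluted emulsion at a predetermined herbicide amount. Seeds had been sown beforehand under about 1.5 cm of sterilized diluvial soil. Grading followed criteria set out in an earlier test.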

lambsquarters [12] = test: Test Example 4: herbicidal effect by soil treatment (Table 19, symbol O); format: in vivo, lambsquarters (Chenopodium album); settings: amount of applied herbicide 320 g/ha
How it was run: as §2

southern crabgrass [13] = test: Test Example 4: herbicidal effect by soil treatment (Table 19, symbol F); format: in vivo, southern crabgrass (Digitaria ciliaris); settings: amount of applied herbicide 320 g/ha
How it was run: as §2

Japanese bulrush [14] = test: Test Example 1: herbicidal activity, application before weed generation under submerged conditions (Table 16, symbol B); format: in vivo, Japanese bulrush (Schoenoplectus juncoides); settings: 320 g/ha applied herbicide
How it was run: (§3)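 Alluvial soil was flooded to 4 cm depth, weed seeds were sown mixed and 2.5-leaf rice seedlings were transplanted. On sowing day, the compound's emulsion, diluted in water to a set dose, was applied to the water surface. Plants grew at 25–30 °C and were scored 0–5 after three weeks.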

oval-leafed pondweed [15] = test: Test Example 2: herbicidal activity, application during weed generation under submerged conditions (Table 17, symbol C); format: in vivo, oval-leafed pondweed (Monochoria vaginalis); settings: AAH 320 g/ha; application during weed generation, submerged conditions
How it was run: (§4)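 In this pot test, flooded alluvial soil (water depth 4 cm) holds all three species sown as a mixture. Once seedlings have one to two leaves, the compound's emulsion, thinned with water to the intended dose, is poured on the water; grading follows after three weeks on the earlier criteria.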

oval-leafed pondweed [16] = test: Test Example 1: herbicidal activity, application before weed generation under submerged conditions (Table 16, symbol C); format: in vivo, oval-leafed pondweed (Monochoria vaginalis); settings: 320 g/ha applied herbicide
How it was run: as §3

chickweed = test: Test Example 4: herbicidal effect by soil treatment (Table 19, symbol P); format: in vivo, common chickweed (Stellaria media); settings: amount of applied herbicide 320 g/ha
How it was run: as §2

Japanese bulrush [17] = test: Test Example 2: herbicidal activity, application during weed generation under submerged conditions (Table 17, symbol B); format: in vivo, Japanese bulrush (Schoenoplectus juncoides); settings: AAH 320 g/ha; application during weed generation, submerged conditions
How it was run: as §4

persian speedwell [18] = test: Test Example 4: herbicidal effect by soil treatment (Table 19, symbol R); format: in vivo, Persian speedwell (Veronica persica); settings: amount of applied herbicide 320 g/ha
How it was run: as §2

blackgrass [19] = test: Test Example 4: herbicidal effect by soil treatment (Table 19, symbol J); format: in vivo, blackgrass (Alopecurus myosuroides); settings: amount of applied herbicide 320 g/ha
How it was run: as §2

rice flat sedge = test: Test Example 3: herbicidal effect by foliage application, Wagner pot (Table 18, symbol E); format: in vivo, rice flat sedge (Cyperus iria); settings: amount of applied herbicide 320 g/ha
How it was run: (§5)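 Plants were sown in alluvial soil held under 0.1–0.5 cm standing water and grown 14 days in a greenhouse at 25–30 °C. An emulsifiable formulation, water-diluted to the set dose, was then sprayed onto the foliage, and effects were scored three weeks later using previously defined criteria.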

wild oat [20] = test: Test Example 4: herbicidal effect by soil treatment (Table 19, symbol I); format: in vivo, wild oat (Avena fatua); settings: amount of applied herbicide 320 g/ha
How it was run: as §2

Italian ryegrass [21] = test: Test Example 4: herbicidal effect by soil treatment (Table 19, symbol K); format: in vivo, Italian ryegrass (Lolium multiflorum); settings: amount of applied herbicide 320 g/ha
How it was run: as §2

redroot pigweed = test: Test Example 4: herbicidal effect by soil treatment (Table 19, symbol N); format: in vivo, redroot pigweed (Amaranthus retroflexus); settings: amount of applied herbicide 320 g/ha
How it was run: as §2

green foxtail [22] = test: Test Example 4: herbicidal effect by soil treatment (Table 19, symbol G); format: in vivo, green foxtail (Setaria viridis); settings: amount of applied herbicide 320 g/ha
How it was run: as §2

velvetleaf [23] = test: Test Example 4: herbicidal effect by soil treatment (Table 19, symbol M); format: in vivo, velvetleaf (Abutilon theophrasti); settings: amount of applied herbicide 320 g/ha
How it was run: as §2

windgrass [24] = test: Test Example 4: herbicidal effect by soil treatment (Table 19, symbol L); format: in vivo, windgrass (Apera spica-venti); settings: amount of applied herbicide 320 g/ha
How it was run: as §2

barnyard grass [25] = test: Test Example 3: herbicidal effect by foliage application, Wagner pot (Table 18, symbol H); format: in vivo, barnyard grass (Echinochloa crus-galli); settings: amount of applied herbicide 320 g/ha
How it was run: as §5

Chinese sprangletop = test: Test Example 3: herbicidal effect by foliage application, Wagner pot (Table 18, symbol D); format: in vivo, chinese sprangletop (Leptochloa chinensis); settings: amount of applied herbicide 320 g/ha
How it was run: as §5

late watergrass [26] = test: Test Example 2: herbicidal activity, application during weed generation under submerged conditions (Table 17, symbol A); format: in vivo, late watergrass (Echinochloa oryzicola); settings: AAH 320 g/ha; application during weed generation, submerged conditions
How it was run: as §4

late watergrass [27] = test: Test Example 1: herbicidal activity, application before weed generation under submerged conditions (Table 16, symbol A); format: in vivo, late watergrass (Echinochloa oryzicola); settings: 320 g/ha applied herbicide
How it was run: as §3

COCCOCOc1c(C)nn(C)c(=O)c1-c1c(-c2ccc(OCC(=O)OC)cc2)sc2ccccc12 [1-233]
effect on windgrass (L) (windgrass [1]): 0 (Herbicidal rate of 5% or less (almost no effect)) | effect on blackgrass (J) (blackgrass [2]): 0 (Herbicidal rate of 5% or less (almost no effect)) | effect on southern crabgrass (F) (southern crabgrass [3]): 0 (Herbicidal rate of 5% or less (almost no effect)) | effect on false cleavers (Q) (false cleavers): 0 (Herbicidal rate of 5% or less (almost no effect)) | effect on green foxtail (G) (green foxtail [4]): 0 (Herbicidal rate of 5% or less (almost no effect)) | effect on velvetleaf (M) (velvetleaf [5]): 0 (Herbicidal rate of 5% or less (almost no effect)) | effect on wild oat (I) (wild oat [6]): 0 (Herbicidal rate of 5% or less (almost no effect)) | effect on Italian ryegrass (K) (Italian ryegrass [7]): 0 (Herbicidal rate of 5% or less (almost no effect)) | effect on barnyard grass (H) (barnyard grass [8]): 0 (Herbicidal rate of 5% or less (almost no effect)) | effect on lambsquarters (O) (lambsquarters [9]): 2 (Herbicidal rate of 20% or more and less than 40%) | effect on persian speedwell (R) (persian speedwell [10]): 0 (Herbicidal rate of 5% or less (almost no effect))

CCCC(=O)Oc1c(C)nn(C)c(=O)c1-c1c(-c2ccc(Cl)c(F)c2)sc2ccc(F)cc12 [2-351]
herbicidal effect on H: barnyard grass (barnyard grass [11]): 0 (Herbicidal rate of 5% or less (almost no effect)) | herbicidal effect on O: lambsquarters (lambsquarters [12]): 3 (Herbicidal rate of 40% or more and less than 70%) | herbicidal effect on F: southern crabgrass (southern crabgrass [13]): 0 (Herbicidal rate of 5% or less (almost no effect)) | Herbicidal effect on B: Japanese bulrush (grade 0-5) (Japanese bulrush [14]): 3 (Herbicidal rate of 40% or more and less than 70%) | herbicidal effect rating, C: oval-leafed pondweed (oval-leafed pondweed [15]): 4 (Herbicidal rate of 70% or more and less than 90%) | Herbicidal effect on C: oval-leafed pondweed (grade 0-5) (oval-leafed pondweed [16]): 3 (Herbicidal rate of 40% or more and less than 70%) | herbicidal effect on P: chickweed (chickweed): 1 (Herbicidal rate of 5% or more and less than 20%) | herbicidal effect rating, B: Japanese bulrush (Japanese bulrush [17]): 3 (Herbicidal rate of 40% or more and less than 70%) | herbicidal effect on R: persian speedwell (persian speedwell [18]): 3 (Herbicidal rate of 40% or more and less than 70%) | herbicidal effect on J: blackgrass (blackgrass [19]): 0 (Herbicidal rate of 5% or less (almost no effect)) | herbicidal effect on E: rice flat sedge (rice flat sedge): 4 (Herbicidal rate of 70% or more and less than 90%) | herbicidal effect on I: wild oat (wild oat [20]): 0 (Herbicidal rate of 5% or less (almost no effect)) | herbicidal effect on K: Italian ryegrass (Italian ryegrass [21]): 0 (Herbicidal rate of 5% or less (almost no effect)) | herbicidal effect on N: redroot pigweed (redroot pigweed): 3 (Herbicidal rate of 40% or more and less than 70%) | herbicidal effect on G: green foxtail (green foxtail [22]): 0 (Herbicidal rate of 5% or less (almost no effect)) | herbicidal effect on M: velvetleaf (velvetleaf [23]): 0 (Herbicidal rate of 5% or less (almost no effect)) | herbicidal effect on L: windgrass (windgrass [24]): 0 (Herbicidal rate of 5% or less (almost no effect)) | herbicidal effect on H: barnyard grass (barnyard grass [25]): 5 (Herbicidal rate of 90% or more (almost completely withered)) | herbicidal effect on D: Chinese sprangletop (Chinese sprangletop): 5 (Herbicidal rate of 90% or more (almost completely withered)) | herbicidal effect rating, A: late watergrass (late watergrass [26]): 3 (Herbicidal rate of 40% or more and less than 70%) | Herbicidal effect on A: late watergrass (grade 0-5) (late watergrass [27]): 5 (Herbicidal rate of 90% or more (almost completely withered))
